According to PubChem BioAssay (NCI):
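How tested: cells in 96-well plates exposed to compound for 48 hours at five concentrations. Abbreviation: GI50, concentration required for 50% inhibition of growth. At the TGI there is no net growth.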 Where a SMILES comes first, the peptide text is derived from it. The star is where a group is joined. Boc = CC(C)(C)OC(=O)*; OBn = c1ccc(CO*)cc1

Legend:
Test in all cases: NCI anticancer screen, dose series, 48 h
A498 renal = test system: A498 renal
EKVX NSCLC = test system: EKVX NSCLC
HCT-116 colon = test system: HCT-116 colon
K-562 leukemia = test system: K-562 leukemia
M14 melanoma = test system: M14 melanoma
MDA-MB-231 breast = test system: MDA-MB-231 breast
MDA-N = test system: MDA-N
MOLT-4 leukemia = test system: MOLT-4 leukemia
SNB-19 CNS = test system: SNB-19 CNS
UACC-62 melanoma = test system: UACC-62 melanoma

SMILES	TGI (A498 renal) [µM]	TGI (EKVX NSCLC) [µM]	TGI (HCT-116 colon) [µM]	TGI (K-562 leukemia) [µM]	TGI (M14 melanoma) [µM]	TGI (MDA-MB-231 breast) [µM]	TGI (MDA-N) [µM]	TGI (MOLT-4 leukemia) [µM]	TGI (SNB-19 CNS) [µM]	TGI (UACC-62 melanoma) [µM]	GI50 (EKVX NSCLC) [nM]	GI50 (HCT-116 colon) [nM]
CCc1ccc2[nH]c(O)c(-c3[nH]c4ccccc4c3N=O)c2c1	15	20	10	97.1	25.3	40.7	20.5	> 100	31.6	23		
Nc1ccccc1N/C=C\C(=O)C(Cl)(Cl)Cl	38.9	30.5	29.7	78.9	31.8	> 100	30.9	> 100	> 100	35.9		
Cc1ccc(N2CCc3c(C)c(C#N)c4nc5ccccc5n4c32)cc1			> 100						> 100	> 100		
CC(C)(C)C1(COC(=O)c2ccc(N)cc2)COC1	> 100	> 100	> 100	> 100	> 100	> 100	> 100	> 100	> 100	> 100		
COc1ccc2c(c1)N=C1CSC(c3ccccc3Cl)N1C2 (stereo not given)		22	18.8	75.7	28.3	> 100	26.8	15.7	> 100	20.3		
CN(C)CCSC(=Nc1ccccc1)N1CCCCC1			33.8	> 100	29.9			58.7	> 100	30.4		
C1CCC(OC2CSC2)OC1 (stereo not given)	> 100		> 100	> 100	> 100	> 100	> 100	> 100	> 100			
O=C1Nc2cc([N+](=O)[O-])ccc2NC1/C(=N\Nc1ccccc1)C(O)c1cccc([N+](=O)[O-])c1 (stereo not given)		> 100	> 100	> 100	> 100			> 100	> 100	> 100		
[N-]=[N+]=CC(=O)OCC1SCCCS1	> 100	> 100	> 100	> 100		> 100	> 100	> 100	> 100	> 100		
CC(NC(=O)C(NC(=O)OC(C)(C)C)C(C)C)C(=O)N1CCCC1C(=O)NCC(=O)NC(C(=O)NCC(=O)OCc1ccccc1)C(C)C (stereo not given) (Boc-VAPGVG-OBn; configuration not given here)	> 100	> 100	> 100	> 100	> 100	> 100	> 100		> 100	> 100		
O=c1[nH]nc(-c2ccccc2)n1/N=C/c1c(O)ccc2ccccc12		> 100	> 100	> 100	> 100	> 100	> 100	> 100	85.4	> 100		
CC(=O)O[C@]12CCCC1C1(O)C(O)CCCC12 (stereo not given in full)		> 100	> 100	> 100	> 100			> 100	> 100	> 100		
Cc1cccc(C2=NC(C)(C)C(C)(C)N=C2c2cccc(C)n2)n1	> 100	> 100	> 100	> 100	> 100				> 100	> 100		
Cc1nc2ccc(S(=O)(=O)O)cc2c(=O)n1-c1ccc(C(=O)NN2C(=O)C(Cl)C2c2ccccc2O)cc1 (stereo not given)	> 100	> 100	> 100	> 100	> 100	> 100	> 100	> 100	> 100			
COc1cccc(Cc2c3cc(OC)ccc3cc[n+]2C)c1	> 100	> 100		> 100	> 100			> 100	> 100			
N#Cc1c(N2CCCC2)ncn(Cc2ccccc2)c1=O	> 100	> 100	> 100	> 100	> 100		> 100	> 100	> 100	> 100		
Cc1cc(-c2nc3ccccc3s2)ccc1NC(=O)[C@H](C)N	28.6		23.4	23.2	19.2	32.6	24.1	37.8	28.7	29.1		
O=C1/C(=C/c2ccccc2[N+](=O)[O-])N=C(c2ccccc2)N1C1Nc2cc3c(cc2S1)NC(N1C(=O)/C(=C/c2ccccc2[N+](=O)[O-])N=C1c1ccccc1)S3 (stereo not given)	> 100	> 100	> 100	> 100	> 100	> 100	> 100	> 100				
Oc1[nH]c2ccccc2c1N=Nc1nc(-c2ccc(Cl)c(Cl)c2)cs1		> 100	> 100		> 100	> 100	> 100	> 100	> 100			
O=C(OCc1ccccc1)C1(N2CN(C3(C(=O)OCc4ccccc4)CCCC3)CN(C3(C(=O)OCc4ccccc4)CCCC3)C2)CCCC1		> 10	> 10	> 10	> 10	> 10	> 10	> 10	> 10	> 10		
O=C(N/N=C/c1cc(Cl)cc(Cl)c1[O-])c1ccccc1O.O=C(N/N=C/c1cc(Cl)cc(Cl)c1[O-])c1ccccc1O.[Ni+2]		5.28	1.5	17.4	1.84			29.7	8.85	0.693	1330	439
O=C(c1ccccc1)c1ccc2nc(-c3c(Cl)c(Cl)c(Cl)c(Cl)c3C(=O)N/N=C/c3ccccc3)[nH]c2c1		60.2	> 100	> 100	> 100	79.2	93.7	54.1	> 100			
CCOc1nc(-c2ccccc2)cc(-c2ccc(N3CCOCC3)cc2)c1C#N	> 100	> 100	> 100	> 100	> 100	> 100	> 100	> 100	> 100			
O=C1NC2(CCCCC2)C2CCCCCC12 (stereo not given)	> 100	> 100	> 100	> 100	> 100			> 100	> 100	> 100		
